Experiments:
[1] = test system: B16/F1 melanocytes; assay: Inhibition of extracellular melanin production in B16/F1 melanocyte cultures; assay type: cell-based, Mouse; conditions: for % Inhibition of extracellular melanin production relative to the control / Extracellular melanin (control: 98 μg ± 4 μg/ml): 72 hours incubation; for Depigmenting effect (summary in text of Table 1): B16/F1 melanocytes, doses of Table 1
Procedure: The influence of N-undecylenoyl phenylalanine monoglyceride, arbutin and N-undecylenoyl phenylalanine on the production of extracellular melanin, in B16/F1 melanocyte cultures, was compared.
Mouse melanocytes of the B16/F1 line cultured as monolayers are seeded in 96-well culture plates at a density of 1500 cells/well. The cells are cultured in a culture medium (MCM medium) at 37° C. under a humid atmosphere containing 5% CO2. The cells are used at 50% of confluence. The MCM medium has the following composition: DMEM medium (Dulbecco's Modified Eagle's Medium) containing 4.5 g/l of glucose supplemented with L-glutamine (2 mM), penicillin (50 IU/ml), streptomycin (50 μg/ml) and fetal calf serum (10% v/v). […] The melanocyte cultures are incubated in the presence of the test product or of the reference products for 72 hours at 37° C., under a humid atmosphere containing 5% CO2. Control cultures are incubated, in the absence of product, in the MCM medium. These control cultures are prepared on each culture plate. Each test is performed six times. After incubation for 72 hours, the incubation media of the cells (n=6) are taken up and stored at −80° C. until the time of evaluation of the effects. The extracellular melanin is quantified by spectrophotometry at 450 nm. A melanin calibration range is prepared in parallel. The results are expressed as μg/ml of extracellular melanin and as a percentage of inhibition relative to the control group in Table 1 below.

[2] = test system: B16/F1 melanocytes; assay: Cytotoxic effect in B16/F1 melanocyte cultures (Bradford total protein); assay type: cell-based, Mouse; conditions: for Cytotoxic effects (summary of Table 2): B16/F1 melanocytes, doses of Table 2; for % Decrease of the total amount of protein relative to the control / Evaluation (cytotoxicity): 72 hours incubation
Procedure: Study of the Cytotoxic Effect of the Compound of Formula (I) in B16/F1 melanocyte Cultures
Evaluation of the presence of cytotoxic effects is performed using the Bradford technique by staining with Coomassie blue (Bradford M., “A rapid and sensitive method for the quantification of microgram quantities of protein utilizing the principle of protein-dye binding”, Anal. Biochem., 1976, 72, 248-254). The B16/F1 melanocytes are incubated after seeding with the dilutions of the test products. After 72 hours of incubation, the B16/F1 melanocytes are washed and then lyzed, and Bradford's reagent is then added. After incubation for 5 minutes at room temperature, a spectrophotometric reading is taken at 640 nm in parallel with an albumin calibration range. The cytotoxicity is proven for a decrease greater than or equal to 20% of the total amount of protein. The results are expressed as a percentage decrease of the total amount of protein, in Table 2 below.

SMILES	% Inhibition of extracellular melanin production relative to the control ([1]; test product 40 μg/ml) [%]	Extracellular melanin (control: 98 μg ± 4 μg/ml) ([1]; test product 40 μg/ml, n=6) [µg/mL]	Cytotoxic effects (summary of Table 2) [2]	% Decrease of the total amount of protein relative to the control ([2]; test product 40 μg/ml)	% Decrease of the total amount of protein relative to the control ([2]; test product 80 μg/ml)	Depigmenting effect (summary in text of Table 1) [1]	% Inhibition of extracellular melanin production relative to the control ([1]; test product 80 μg/ml)	Extracellular melanin (control: 98 μg ± 4 μg/ml) ([1]; test product 80 μg/ml)	% Decrease of the total amount of protein relative to the control ([2]; test product 60 μg/ml)	% Decrease of the total amount of protein relative to the control ([2]; test product 50 μg/ml) [%]	Evaluation (cytotoxicity) ([2]; test product 50 μg/ml)	Evaluation (cytotoxicity) ([2]; test product 80 μg/ml)
OC[C@H]1O[C@@H](Oc2ccc(O)cc2)[C@H](O)[C@@H](O)[C@@H]1O [Arbutin, reference compound]	61	39 ± 3										
C=CCCCCCCCCC(=O)NC(Cc1ccccc1)C(=O)OCC(O)CO (stereo not shown) [Compound (A), N-undecylenoyl phenylalanine monoglyceride]	15	84 ± 8	absence of cytotoxic effects	No observed decrease	No observed decrease	depigmenting effect	58%	42 ± 1 µg/mL				
C=CCCCCCCCCC(=O)NC(Cc1ccccc1)C(=O)OCC(O)COCC(O)CO (stereo not shown) [Compound (B), N-undecylenoyl phenylalanine diglyceryl ester]			absence of cytotoxic effects		No observed decrease	depigmenting effect	34%	54 ± 3 µg/mL	No observed decrease			
C=CCCCCCCCCC(=O)N[C@@H](Cc1ccccc1)C(=O)O [N-Undecylenoyl phenylalanine, N-undecylenoyl phenylalanine]	40	59 ± 3	cytotoxic		80%		Cytotoxicity	Cytotoxicity		32	Cytotoxic (The cytotoxicity is proven for a decrease greater than or equal to 20% of the total amount of protein)	Cytotoxic (The cytotoxicity is proven for a decrease greater than or equal to 20% of the total amount of protein)

From US8323627B2, “Monoester of N-undecylenoyl phenylalanine and polyol, method for preparing same, and use of said esters as a skin lightening agent” (Societe d'Exploitation de Produits pour les Industries …, priority 2008, dated 2012)
